# Data reported in US20160310369A1, “Low Viscosity Hair Care Composition” (The Procter & Gamble Company, priority 2015, published 2016).
# Counter-ions that a name gives are not always drawn.
# Assay: Kinematic viscosity of surfactant base formulation with added agent, calibrated Cannon viscometers at 40° C.
# Type: physicochemical
# Settings: for Kinematic viscosity at 40 C. [cSt] 2% oil: 2% agent in base formulation; for Kinematic viscosity at 40 C. [cSt] Lowest viscosity achieved: lowest over 2-8% agent, Table 2; for Kinematic viscosity at 40 C. [cSt] 4% oil: 4% agent in base formulation; for Kinematic viscosity at 40 C. [cSt] 6% oil: 6% agent in base formulation; for Kinematic viscosity at 40 C. [cSt] 8% oil: 8% agent in base formulation
# Excerpt: Referring to Tables 1 and 2, the base formulations were made by mixing 1.6% perfume, 24% sodium undecyl sulfate (CAS#1072-24-8) active, 6% lauramidopropyl betaine (CAS#4292-10-8) active and 60.4% deionized water which leaves 8% unfilled for the addition of a viscosity reducing agent (the balance being filled in by distilled water). For all compositions, the surfactant, water and additives including viscosity reducing agents were expected to be in a single phase.
# The agents from Tables 1 and 2 were added to the base formulation at a percentage of 2%, 4%, 6%, and 8% into the above surfactant solution. The subsequent formulations were vortexed and put into oven at 60° C. overnight to form homogeneous solution. The viscosities of the formulations were measured with calibrated viscometers (Size 200/350/450) from Cannon Instrument Company (2139 High Tech Road, State College, Pa., USA, 16803).
# (§1) After the equilibration, the formulations were drawn to reach the starting mark with a rubber suction bulb and the flow time between the starting mark and end mark was recorded for calculation. Each formulation was measured three times to calculate average and standard deviation. Between samples, viscometer was cleaned with water and acetone to rinse off residual.
# Viscosity values were calculated based on the equation:
# Viscosity (mm^2/s·(cSt))=Time (s)*Constant (mm^2/s^2·(cSt/s))
# The time in the above equation is the flow time recorded in the experiment and the constant numbers for each calibrated viscometer were obtained from the manuals.
# The viscosity of the hair care composition can be calculated using the following method: Combine ingredients including surfactants, perfumes, viscosity reducing agents, polymers, other ingredients and the aqueous medium in a vessel. Samples are vortexed and placed into oven at 60° C. overnight to form a homogeneous solution. Samples that show hazing or clouding and formulas that appear macroscopically heterogeneous (e.g. multiple layers) at room temperature are not considered for further analysis and evaluation.
# The viscosities of the formulations are measured with calibrated viscometers (Size 200/350/450) from Cannon Instrument Company (2139 High Tech Road, State College, Pa., USA, 16803). Prior to the measurement, the formulations are equilibrated in the viscometer reservoir for 30 min at 40° C. in water bath to ensure a homogeneous temperature is reached in the system.
# as §1, with “are” for “were”, “is” for “was”, “samples, the” for “samples,”
Compound,Kinematic viscosity at 40 C. [cSt] 2% oil [cSt],Kinematic viscosity at 40 C. [cSt] Lowest viscosity achieved [cSt],Kinematic viscosity at 40 C. [cSt] 4% oil [cSt],Kinematic viscosity at 40 C. [cSt] 6% oil [cSt],Kinematic viscosity at 40 C. [cSt] 8% oil [cSt]
CCC(=O)O[C@@H]1C[C@H]2CC[C@]1(C)C2(C)C (racemic) [Iso Bornyl Propionate],463.1,463,,,
"CCCCCCCC(OC)OC [1,1-Dimethoxyoctane]",500.7,308,308.1,,
CC(C)CC=C(C=O)C(C)C [2-Isopropyl-5-methyl-2-hexenal],332.3,332,,,
"CC(=O)OCCC(C)CCCC(C)C (stereo not drawn) [3,7-Dimethyloctyl Acetate]",445.7,446,,,
CCC(CC(C)CC)=NO (stereo not drawn) [5-Methyl-3-Heptanone Oxime],246.3,246,,,
CCCCOC(=O)c1ccccc1O [Butyl Salicylate],367.9,368,,,
CC12CCC(CC1=O)C2(C)C (stereo not drawn) [Camphor Gum],365.8,127,127.2,,
CC(=O)OCCC(C)CCC=C(C)C (stereo not drawn) [Citronellyl Acetate],362.7,363,,,
CCC(=O)OC1CC2CC1C1CC=CC21 (stereo not drawn) [Cyclaprop],404.2,404,,,
CCCCCCC1C(=O)CCC1C(=O)OC (stereo not drawn) [Dihyro Iso Jasmonate],334.9,119,119.1,,
C=C(C)[C@H]1CC=C(C)CC1 [Dipentene],307.6,35,74.5,35.1,42.6
"CCO [Ethanol, reference compound]",205.6,29,111.0,50.8,29.2
CC12CCC(CC1)C(C)(C)O2 [Eucalyptol],527.3,203,292.9,203.1,
CC(C)=CCC/C(C)=C/COC(=O)Cc1ccccc1 [Geranyl Phenyl Acetate],224.0,34,76.0,34.3,36.6
CCCCCCCCCCCCCCCC [Hexadecane],21.1,18,18.1,,
CC(CC=O)CCCC(C)(C)O (stereo not drawn) [Hydroxycitronellal],310.8,34,145.4,65.9,34.1
CC(C)COC(=O)c1ccccc1O [Iso Butyl Salicylate],408.7,409,,,
CCCCCCCCCCCCCC(=O)OC(C)C [Iso Propyl Myristate],234.2,30,53.7,30.4,45.0
CC(C)CCOC(=O)c1ccccc1O [Isoamyl Salicylate],460.3,193,193.2,,
CCCCCC(=O)OCC(C)C [Isobutyl Hexanoate],390.0,109,177.9,140.9,109.4
C=C(C)[C@H]1CC=C(C)CC1 [Limonene],366.5,86,166.8,97.5,86.4
C=CC(C)(CCC=C(C)C)OC(=O)C(C)C (stereo not drawn) [Linalyl Iso Butyrate],223.4,38,73.0,37.7,39.9
COC(C)(C)C1CC=C(C)CC1 (stereo not drawn) [Orange Flower Ether],552.2,419,418.8,,
CC(=O)CCc1ccc(O)cc1 [Raspberry Ketone],151.9,33,107.4,54.0,33.0
CCOC(=O)CC(O)(CC(=O)OCC)C(=O)OCC [Triethyl Citrate],269.4,41,136.6,66.6,40.5
CCCCCC1(C)CCC(C)(C)C1=O (stereo not drawn) [Veloutone],260.2,47,129.1,56.3,47.3
CC1=CC=C(C(C)C)CC1 [alpha-Terpinene],324.4,42,96.0,41.5,46.7
CC1=CCC(C(C)C)=CC1 [gamma-Terpinene],238.0,32,65.0,31.7,
